Here are results for nine compounds from paper doi:10.1101/2021.10.04.463106, “A high throughput screening assay for inhibitors of SARS-CoV-2 pseudotyped particle entry” (bioRxiv, 2021).

In one data set the test system is VSV-G PP. Type of data set: cell-based, vesicular stomatitis virus.
Data set [1] relates to SARS-CoV-2-S PP (Wuhan-Hu-1 spike). Kind of data set: microbe, parasite or virus in culture. Type of data set: cell-based. The conditions noted are these: Severe acute respiratory syndrome coronavirus 2, read-out: PP EC50.
Data set [2] relates to SARS-CoV-2 (USA_WA1/2020). Type of data set: cell-based.
A short description of data set [3]: ATP content cytotoxicity assay. As to conditions: human, HEK293-ACE2 cells.

Structures are written as SMILES. Structures can show the parent of a compound that is named as a salt.

With `CC(C)OC(=O)OCOP(=O)(CO[C@H](C)Cn1cnc2c(N)ncnc21)OCOC(=O)OC(C)C` [tenofovir disoproxil fumarate], in the data set on VSV-G PP, the “potency in the VSV-G PP entry counter assay compared with SARS-CoV-2-S PP entry” value (from here on “potency … compared with SARS-CoV-2-S PP entry”) is “same potency”.
As a reminder, the EC50 is the concentration needed to bring the measured effect to its halfway point. Consider `Oc1ccc(Cl)cc1Cc1cc(Cl)ccc1O` [Dichlorophen, dichlorophen], for which the EC50 in data set [1] was determined as 0.03 µM. For the same compound, in data set [2], the “protective effect against cell death caused by the virus (CPE rescue)” value is on record as “not confirmed”.
On to `C[C@@H]1CCO[C@H]2Cn3cc(C(=O)NCc4ccc(F)cc4F)c(=O)c(O)c3C(=O)N12` [dolutegravir], for which the “potency … compared with SARS-CoV-2-S PP entry” value in the data set with VSV-G PP is recorded as “same potency”.
Turning to `Nc1ncnc2c1ncn2CCOCP(=O)(O)O` [adefovir], the “potency … compared with SARS-CoV-2-S PP entry” value in the data set on VSV-G PP was “same potency”.
Take `CCOC(=O)[C@H]1O[C@@H]1C(=O)N[C@@H](CC(C)C)C(=O)NCCC(C)C` [Aloxistatin, aloxistatin]: in data set [1], the EC50 was found to be 0.19 µM. The EC50 at 48 h in data set [3] is greater than 50 µM.
Regarding `COc1cc2c(cc1Cc1cccc(Cl)c1F)c(=O)c(C(=O)O)cn2[C@H](CO)C(C)C` [elvitegravir], in the data set on VSV-G PP, the “potency … compared with SARS-CoV-2-S PP entry” value is recorded as “same potency”.
Take `COc1cc(N2CCC(N3CCN(C)CC3)CC2)ccc1Nc1ncc(Cl)c(Nc2ccccc2P(C)(C)=O)n1` [Brigatinib, brigatinib]: the concentration giving a half-maximal response (EC50) in data set [1] worked out at 4.3 µM. The compound also gave an EC50 at 48 h in data set [3] of 0.67 µM.
Take `Cc1cccc(/C=N/Nc2cc(N3CCOCC3)nc(OCCc3ccccn3)n2)c1` [Apilimod, apilimod]: the half-maximal effective concentration (EC50) in data set [1] was determined as 0.12 µM. Moreover, in data set [3], the response was half-maximal at 9.31 µM (EC50 at 48 h).
On to `CCCC[C@@H](C=O)NC(=O)[C@H](CC(C)C)NC(=O)OCc1ccccc1` [Calpeptin, calpeptin], for which the half-maximal effective concentration (EC50) in data set [1] was found to be 1.2 µM. For the same compound, in data set [3], the EC50 at 48 h is greater than 50 µM.
